Assay results reported in ChEMBL document CHEMBL5046258, “Anti-inflammatory Dimeric Benzophenones from an Endophytic Pleosporales Species” (J Nat Prod, 2022).

System: RAW264.7
Assay: Antiinflammatory activity in mouse RAW 264.7 cells assessed as inhibition of LPS-induced nitric oxide production measured after 24 hrs by Griess reagent assay
Type: functional, cell-based
Settings: RAW264.7, 24 h

Structure (SMILES)	IC50 [µM]
COc1cc(C)c(C(=O)c2c(O)cc(OC)c(Cc3c(OC)cc(O)c(C(=O)c4c(C)cc(OC)cc4OC)c3O)c2O)c(OC)c1	8.8
C[C@@H]1C[C@H]2[C@@H]3CCC4=CC(=O)C=C[C@]4(C)[C@@]3(F)[C@@H](O)C[C@]2(C)[C@@]1(O)C(=O)CO [DEXAMETHASONE]	22.2
COc1cc(C)c(C(=O)c2c(O)cc(OC)c(Cc3c(O)cc(O)cc3CC(C)=O)c2O)c(OC)c1	18.1
Cc1cc2c(C)cc(O)cc2c(=O)o1	46.1
COc1cc(C)c(C(=O)c2c(O)cc(OC)cc2O[C@@H]2O[C@H](CO)[C@@H](O)[C@H](O)[C@H]2O)c(O)c1	23.3
COc1cc(C)c(C(=O)c2c(O)cc(OC)cc2O[C@@H]2O[C@H](CO)[C@@H](O)[C@H](O)[C@H]2O)c(OC)c1	43.3
COc1cc(C)c(C(=O)c2c(O)cc(OC)c(C(CCC(=O)O)c3c(OC)cc(O)c(C(=O)c4c(C)cc(OC)cc4OC)c3O)c2O)c(OC)c1	15.6
Cc1cc(O)cc2oc(=O)c3c(O)cc(O)cc3c12 [ALTERNARIOL]	51.4

Further lines, results first:

IC50 [µM]	Structure (SMILES)
39.1	COc1cc(O)c2c(c1)C1=CC(=O)C(O)=CC1(C)OC2=O (stereo unspecified) [DEHYDROALTENUSIN]
22.4	COc1cc(O)c2c(=O)c3c(C)c(O)c(OC)cc3oc2c1
19.5	COc1cc(C)c2c(=O)c3c(O)cc(OC)cc3oc2c1 [LICHEXANTHONE]
45.2	COc1cc(O)c(C(=O)c2c(C)cc(OC)cc2OC)c(O)c1
39	COc1cc(C)c(C(=O)c2c(O)cc(O)cc2O)c(OC)c1
35.1	COc1cc(O)c(C(=O)c2c(C)cc(O)cc2OC)c(O)c1
49.7	COc1cc(O)c(C(=O)Oc2c(C)cc(O)cc2OC)c(O)c1
35.2	Cc1cc(O)cc2oc3cc(O)cc(O)c3c(=O)c12 [NORLICHEXANTHONE]
